According to patent US10526316B2, “Quinoxaline and pyridopyrazine derivatives as PI3Kβ inhibitors” (Janssen Pharmaceutica NV, priority 2015, dated 2020):
Like-named read-outs stand apart in the source and are kept apart here.

How the values were obtained:
PI3Kβ = target: T1, PI3Kβ (Homo sapiens, UniProt P42338); assay: Enzyme binding assay (KINOMEscan, DiscoveRx); settings: PIK3Cβ_h, read-out: Kd PIK3Cβ_h
T1 construct: purchased DiscoveRx Corporation, San Diego (contract service, KINOMEscan)
Experimental: (§1) Enzyme Binding Assays (KINOMEscan®)
Kinase enzyme binding affinities of compounds disclosed herein were determined using the KINOMEscan technology performed by DiscoveRx Corporation, San Diego, Calif., USA (www.kinomescan.com). Table A reports the obtained Kd values (nM), with the Kd being the inhibitor binding constant: […]

PI3Kδ = target: T2, PI3Kδ (Homo sapiens, UniProt O00329); assay: Enzyme binding assay (KINOMEscan, DiscoveRx); settings: PIK3Cδ_h
T2 construct: purchased DiscoveRx Corporation, San Diego (contract service, KINOMEscan)
T2 sequence (O00329 1-1044): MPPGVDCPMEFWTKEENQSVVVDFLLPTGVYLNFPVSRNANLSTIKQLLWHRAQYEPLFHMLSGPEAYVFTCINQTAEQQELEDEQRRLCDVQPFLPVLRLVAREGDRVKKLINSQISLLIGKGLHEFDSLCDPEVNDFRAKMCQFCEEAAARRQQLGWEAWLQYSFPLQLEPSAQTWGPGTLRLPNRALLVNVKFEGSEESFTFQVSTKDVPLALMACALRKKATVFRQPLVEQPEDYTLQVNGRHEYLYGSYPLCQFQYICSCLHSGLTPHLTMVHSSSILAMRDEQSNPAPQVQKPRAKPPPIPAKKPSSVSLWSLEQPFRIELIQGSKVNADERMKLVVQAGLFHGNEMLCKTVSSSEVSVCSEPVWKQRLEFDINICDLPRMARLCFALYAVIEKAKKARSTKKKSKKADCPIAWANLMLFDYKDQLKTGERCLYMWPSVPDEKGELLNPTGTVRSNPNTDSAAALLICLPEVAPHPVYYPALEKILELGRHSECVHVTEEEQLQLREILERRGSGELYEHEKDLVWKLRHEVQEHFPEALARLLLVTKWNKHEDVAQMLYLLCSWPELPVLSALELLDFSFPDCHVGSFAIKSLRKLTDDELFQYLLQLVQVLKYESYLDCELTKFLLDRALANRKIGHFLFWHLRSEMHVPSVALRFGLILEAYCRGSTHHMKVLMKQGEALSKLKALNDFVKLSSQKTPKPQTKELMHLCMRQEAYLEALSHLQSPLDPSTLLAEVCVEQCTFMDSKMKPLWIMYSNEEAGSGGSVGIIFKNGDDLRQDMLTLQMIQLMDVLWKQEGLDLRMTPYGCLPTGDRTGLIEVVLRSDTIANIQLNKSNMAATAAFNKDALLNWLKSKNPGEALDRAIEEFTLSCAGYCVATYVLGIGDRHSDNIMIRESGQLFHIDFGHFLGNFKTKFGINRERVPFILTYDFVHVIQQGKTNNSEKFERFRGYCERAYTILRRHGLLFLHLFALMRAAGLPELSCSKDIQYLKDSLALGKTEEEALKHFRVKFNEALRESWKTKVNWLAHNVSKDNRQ
Experimental: as §1
(§2) Kinase enzyme binding affinities of compounds disclosed herein were determined using the KINOMEscan technology performed by DiscoveRx Corporation, San Diego, Calif., USA (www.kinomescan.com).

kinase enzymes [1] = target: T3, kinase enzymes (Homo sapiens, UniProt P42336); assay: Enzyme binding assay (KINOMEscan, DiscoveRx), further kinases of Table A; settings: PIK3Cα_h
T3 construct: purchased DiscoveRx Corporation, San Diego (contract service, KINOMEscan)
Experimental: as §1, §2

kinase enzymes [2] = target: T4, kinase enzymes (Homo sapiens, UniProt P42345); assay: as above; settings: MTOR_h
T4 construct: purchased DiscoveRx Corporation, San Diego (contract service, KINOMEscan)
Experimental: as §1, §2

kinase enzymes [3] = target: T5, kinase enzymes (Homo sapiens, UniProt P48736); assay: as above; settings: PIK3Cγ_h
T5 construct: purchased DiscoveRx Corporation, San Diego (contract service, KINOMEscan)
Experimental: as §1, §2

[4] = tested on: Akt phosphorylated at Ser473 in PC-3 cells; assay: Cellular assay: phosphorylation of Akt at Ser473 in PC-3 cells (MSD ELISA); type: cell-based; settings: PC-3 cells, 60 min compound incubation, MSD ELISA, read-out: IC50 pAkt_S473
Experimental: (§3) Cellular activity of PI3KP inhibitors was determined by quantifying the phosphorylation of Akt in PC-3 cells. Akt phosphorylated at Ser473 and Thr308 were measured using an enzyme-linked immunosorbent assay (ELISA; Meso Scale Discovery (MSD), Gaithersburg. Md.) and specific primary antibodies from MSD.
(§4) On day 2, compound or DMSO (0.3%) was added and cells were further incubated for 60 min at 37° C. 5% CO2 in a total volume of 100 μl of medium.
(§5) The phosphoprotein assay was executed according to vendor instructions in the Phospho-Akt (Ser473) Assay Whole Cell Lysate Kit (MSD # K15100D-3) and the Phospho-Akt (Thr308) Assay Whole Cell Lysate Kit (MSD # K151DYD-3) using the lysis, blocking and wash buffer provided.
(§6) Briefly, at the end of the cell treatment period, media were removed by aspiration and adherent cells were lysed in 50 μl ice-cold lysis buffer. MSD plates are supplied pre-coated with capture antibodies for Phospho-Akt (Ser473 and Thr308). After blocking, lysates from tissue culture plates were added and plates were washed. Then, a solution containing the detection antibody (anti-total Akt conjugated with an electrochemiluminescent compound-MSD Sulfo-tag label) was added. The signals were detected using an MSD SECTOR Imager 6000 and are proportional to the phospho-Akt titres.
(§7) Data were processed. […] From these concentration-response curves, the IC50 values were calculated. Five concentrations were used for curve fitting.

[5] = tested on: Akt phosphorylated at Thr308 in PC-3 cells; assay: Cellular assay: phosphorylation of Akt at Thr308 in PC-3 cells (MSD ELISA); type: cell-based; settings: PC-3 cells, 60 min compound incubation, MSD ELISA, read-out: IC50 pAkt_Thr308
Experimental: as §3, §4, §5, §6, §7

T1 sequence (P42338 whole entry): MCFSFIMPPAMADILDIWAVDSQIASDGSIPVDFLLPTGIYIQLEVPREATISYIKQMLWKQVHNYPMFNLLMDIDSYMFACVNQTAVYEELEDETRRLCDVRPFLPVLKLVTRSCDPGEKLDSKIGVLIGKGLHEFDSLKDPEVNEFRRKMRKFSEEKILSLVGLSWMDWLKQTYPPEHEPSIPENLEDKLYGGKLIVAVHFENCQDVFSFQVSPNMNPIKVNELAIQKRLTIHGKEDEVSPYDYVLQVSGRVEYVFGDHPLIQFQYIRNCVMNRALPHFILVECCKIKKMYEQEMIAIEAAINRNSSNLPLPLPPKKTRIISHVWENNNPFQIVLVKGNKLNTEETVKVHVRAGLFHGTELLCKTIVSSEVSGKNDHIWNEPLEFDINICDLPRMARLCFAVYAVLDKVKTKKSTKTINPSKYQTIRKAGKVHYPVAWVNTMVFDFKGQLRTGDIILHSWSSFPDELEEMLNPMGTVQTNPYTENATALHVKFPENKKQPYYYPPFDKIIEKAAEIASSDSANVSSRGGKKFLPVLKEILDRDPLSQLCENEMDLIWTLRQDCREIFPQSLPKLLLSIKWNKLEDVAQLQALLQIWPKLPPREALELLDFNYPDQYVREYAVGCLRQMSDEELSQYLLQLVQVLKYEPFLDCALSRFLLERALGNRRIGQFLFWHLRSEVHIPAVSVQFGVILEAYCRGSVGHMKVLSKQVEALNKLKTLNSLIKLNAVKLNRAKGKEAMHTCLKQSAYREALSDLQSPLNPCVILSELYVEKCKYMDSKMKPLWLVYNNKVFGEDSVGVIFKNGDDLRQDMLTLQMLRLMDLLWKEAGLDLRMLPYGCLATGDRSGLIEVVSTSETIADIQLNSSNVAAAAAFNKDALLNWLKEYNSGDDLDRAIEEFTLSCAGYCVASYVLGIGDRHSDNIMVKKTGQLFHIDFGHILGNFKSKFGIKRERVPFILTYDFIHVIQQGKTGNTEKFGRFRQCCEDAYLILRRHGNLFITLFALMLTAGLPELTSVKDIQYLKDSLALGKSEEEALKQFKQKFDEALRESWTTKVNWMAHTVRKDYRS
T5 sequence (P48736 whole entry): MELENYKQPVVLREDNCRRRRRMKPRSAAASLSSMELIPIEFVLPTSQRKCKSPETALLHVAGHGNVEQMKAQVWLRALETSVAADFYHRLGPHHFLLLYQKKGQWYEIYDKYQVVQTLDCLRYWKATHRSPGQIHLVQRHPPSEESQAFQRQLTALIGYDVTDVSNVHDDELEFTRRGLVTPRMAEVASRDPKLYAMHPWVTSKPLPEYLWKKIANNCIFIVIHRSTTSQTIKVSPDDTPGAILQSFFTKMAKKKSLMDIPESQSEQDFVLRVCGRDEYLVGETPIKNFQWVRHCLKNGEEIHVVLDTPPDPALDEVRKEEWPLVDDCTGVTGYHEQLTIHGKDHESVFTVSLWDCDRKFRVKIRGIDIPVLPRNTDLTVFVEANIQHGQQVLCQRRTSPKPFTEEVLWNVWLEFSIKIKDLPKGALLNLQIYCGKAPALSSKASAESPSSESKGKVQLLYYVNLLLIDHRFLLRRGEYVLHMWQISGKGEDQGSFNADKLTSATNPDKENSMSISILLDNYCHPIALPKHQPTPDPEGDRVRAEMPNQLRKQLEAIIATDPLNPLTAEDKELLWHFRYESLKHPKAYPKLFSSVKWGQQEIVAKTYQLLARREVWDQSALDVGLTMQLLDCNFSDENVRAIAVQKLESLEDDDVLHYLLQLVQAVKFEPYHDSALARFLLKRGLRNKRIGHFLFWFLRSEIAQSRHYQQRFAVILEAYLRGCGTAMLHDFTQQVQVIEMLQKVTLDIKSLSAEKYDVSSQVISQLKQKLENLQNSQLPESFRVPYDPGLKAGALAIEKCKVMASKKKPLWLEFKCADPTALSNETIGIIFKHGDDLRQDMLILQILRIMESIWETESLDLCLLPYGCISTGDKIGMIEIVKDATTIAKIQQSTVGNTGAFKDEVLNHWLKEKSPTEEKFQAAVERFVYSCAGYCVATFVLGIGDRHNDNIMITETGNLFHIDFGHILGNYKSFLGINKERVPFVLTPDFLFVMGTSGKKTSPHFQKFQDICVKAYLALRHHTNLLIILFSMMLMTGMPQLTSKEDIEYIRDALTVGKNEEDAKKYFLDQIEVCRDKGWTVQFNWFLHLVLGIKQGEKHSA
T3 sequence (P42336 whole entry): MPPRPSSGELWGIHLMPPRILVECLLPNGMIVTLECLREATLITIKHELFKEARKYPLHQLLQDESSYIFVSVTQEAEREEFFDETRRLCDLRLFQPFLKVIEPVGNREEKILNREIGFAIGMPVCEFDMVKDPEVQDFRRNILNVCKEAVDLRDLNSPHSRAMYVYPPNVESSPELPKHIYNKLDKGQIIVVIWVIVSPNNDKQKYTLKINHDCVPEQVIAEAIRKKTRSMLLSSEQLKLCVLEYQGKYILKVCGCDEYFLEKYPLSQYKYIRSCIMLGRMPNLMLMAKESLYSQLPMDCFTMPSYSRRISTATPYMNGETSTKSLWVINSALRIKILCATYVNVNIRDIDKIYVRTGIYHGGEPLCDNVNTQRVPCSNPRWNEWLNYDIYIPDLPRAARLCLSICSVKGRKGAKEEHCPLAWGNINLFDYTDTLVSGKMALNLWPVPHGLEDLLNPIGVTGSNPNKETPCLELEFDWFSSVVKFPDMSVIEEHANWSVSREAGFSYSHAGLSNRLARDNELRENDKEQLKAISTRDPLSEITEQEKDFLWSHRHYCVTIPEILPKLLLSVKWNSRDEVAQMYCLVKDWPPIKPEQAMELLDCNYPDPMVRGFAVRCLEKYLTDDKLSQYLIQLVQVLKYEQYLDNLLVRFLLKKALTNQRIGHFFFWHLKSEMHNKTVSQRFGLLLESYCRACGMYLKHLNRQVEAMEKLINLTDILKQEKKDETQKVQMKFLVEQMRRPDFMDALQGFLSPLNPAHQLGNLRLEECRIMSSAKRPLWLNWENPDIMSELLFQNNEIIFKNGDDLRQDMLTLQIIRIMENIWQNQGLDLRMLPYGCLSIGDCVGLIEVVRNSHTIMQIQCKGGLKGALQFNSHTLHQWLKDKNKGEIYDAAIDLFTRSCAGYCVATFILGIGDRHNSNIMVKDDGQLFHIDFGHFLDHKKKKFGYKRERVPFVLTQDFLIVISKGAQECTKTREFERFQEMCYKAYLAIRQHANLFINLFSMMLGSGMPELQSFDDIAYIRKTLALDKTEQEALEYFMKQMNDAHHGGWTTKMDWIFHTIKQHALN

Row | SMILES | Kd (PI3Kβ) | Kd (PI3Kδ) | Kd (kinase enzymes [1]) | Kd (kinase enzymes [2]) | Kd (kinase enzymes [3]) | IC50 [4] | IC50 [5] | IC50 ([4]; Homo sapiens, PC-3, 1 h) | IC50 ([5]; Homo sapiens, PC-3, 1 h)
1 | Cc1cccc(N(C)C(C)c2cc(C(=O)N(C)C)cc3ncc(N4CCOCC4)nc23)c1 (single isomer, unassigned) [Compound 128] | 1.12 µM | 15.1 µM | 4.9 µM | 21.4 µM | 12.3 µM | > 0.513 µM | > 0.513 µM |  | 
2 | CNCCNC(=O)c1cc(C(C)Nc2cccc(F)c2)c2nc(N3CCOCC3)cnc2c1 (single isomer, unassigned) [Compound 138] | 0.0001 µM | 0.056 µM | 0.398 µM | 30.9 µM | 2.15 µM | 0.003 µM | 0.002 µM |  | 
3 | CNCCNC(=O)c1cc(C(C)Nc2cccc(F)c2)c2nc(N3CCOCC3)cnc2c1 (single isomer, unassigned) [Compound 139] | 0.041 µM | 4.42 µM | 3.76 µM | 18.6 µM | 3.43 µM | 0.132 µM | 0.249 µM |  | 
4 | CNCCN(C)C(=O)c1cc(C(C)Nc2cc(F)cc(F)c2)c2nc(N3CCOCC3)cnc2c1 (single isomer, unassigned) [Compound 152] | 0.01 µM | 1.82 µM | 3.98 µM | > 30.2 µM | 8.71 µM | 0.062 µM | 0.087 µM |  | 
5 | CC(Nc1cc(F)cc(F)c1)c1cc(CO)cc2ncc(N3CCOCC3)nc12 (single isomer, unassigned) [Compound 154a] | 0.001 µM | 0.098 µM | 0.437 µM | 8.51 µM | 0.741 µM | 0.03 µM | 0.023 µM |  | 
6 | CC(Nc1cc(F)cc(F)c1)c1cc(CN2CCS(=O)(=O)CC2)cc2ncc(N3CCOCC3)nc12 (single isomer, unassigned) [Compound 156] | 0.002 µM | 0.363 µM | 0.398 µM | > 30.2 µM | > 30.2 µM | 0.042 µM | 0.051 µM |  | 
7 | CC(Nc1cc(F)cc(F)c1)c1cc(CN2CCS(=O)(=O)CC2)cc2ncc(N3CCOCC3)nc12 (single isomer, unassigned) [Compound 157] | 0.102 µM | 20 µM | 13.2 µM | > 30.2 µM | > 30.2 µM | > 0.513 µM | 0.417 µM |  | 
8 | CC(Nc1cc(F)cc(F)c1)c1cc(C(=O)N(C)C)cc2ncc(C3=CCOCC3)nc12 (single isomer, unassigned) [Compound 158] | 0.0004 µM | 0.12 µM | 0.339 µM | > 30.2 µM | 2.29 µM | 0.023 µM | 0.02 µM |  | 
9 | CC(Nc1cc(F)cc(F)c1)c1cc(C(=O)N(C)C)cc2ncc(C3=CCOCC3)nc12 (single isomer, unassigned) [Compound 159] | 0.11 µM | 23.4 µM | > 30.2 µM | > 30.2 µM | > 30.2 µM | > 0.513 µM | > 0.513 µM |  | 
10 | CC(Nc1cc(F)cc(F)c1)c1cc(CNCC(F)(F)F)cc2ncc(N3CCOCC3)nc12 (single isomer, unassigned) [Compound 163] | 0.832 µM | 16.2 µM | > 30.2 µM | > 30.2 µM | > 30.2 µM | > 0.513 µM | > 0.513 µM |  | 
11 | CNCCNC(=O)c1cc(C(C)Oc2cc(F)cc(F)c2)c2nc(N3CCOCC3)cnc2c1 (single isomer, unassigned) [Compound 166] | 0.019 µM | 4.07 µM | 16.6 µM | 21.9 µM | 14.8 µM | > 0.513 µM | > 0.513 µM |  | 
12 | CNCCOCCN(C)C(=O)c1cc(C(C)Nc2cc(F)cc(F)c2)c2nc(N3CCOCC3)cnc2c1 (single isomer, unassigned) [Compound 175] | 0.0004 µM | 0.112 µM | 1.7 µM | > 30.2 µM | 2.57 µM | 0.009 µM | 0.011 µM |  | 
13 | CC(Nc1cc(F)cc(F)c1)c1cc(COCCO)cc2ncc(N3CCOCC3)nc12 (single isomer, unassigned) [Compound 177] | 0.002 µM | 0.17 µM | 1.38 µM | 24 µM | 6.92 µM | 0.06 µM | 0.042 µM |  | 
14 | CC(Nc1cc(F)cc(F)c1)c1cc(COCCO)cc2ncc(N3CCOCC3)nc12 (single isomer, unassigned) [Compound 178] | 1.1 µM | 16.6 µM | > 30.2 µM | > 30.2 µM | > 30.2 µM | > 0.513 µM | > 0.513 µM |  | 
15 | CC(Nc1cc(F)cc(F)c1)c1cc(C2=NC(C)(C)CO2)cc2ncc(N3CCOCC3)nc12 (single isomer, unassigned) [Compound 187] | 1.05 µM | > 30.2 µM | > 30.2 µM | > 30.2 µM | > 30.2 µM |  |  | > 0.513 µM | > 0.513 µM
16 | CC(Nc1cc(F)cc(F)c1)c1cc(C(=O)NCCO)cc2ncc(N3CCOCC3)nc12 (single isomer, unassigned) [Compound 189] | 2.51 µM | 28.2 µM | > 30.2 µM | > 30.2 µM | 4.47 µM | > 0.513 µM | > 0.513 µM |  | 
17 | CC(Nc1cc(F)cc(F)c1)c1cc(CN2CCO[C@H](CO)C2)cc2ncc(N3CCOCC3)nc12 (single isomer, unassigned) [Compound 194] | 1.82 µM | > 30.2 µM | > 30.2 µM | > 30.2 µM | > 30.2 µM |  |  | > 0.513 µM | > 0.513 µM
18 | CC(Nc1cc(F)cc(F)c1)c1cc(CN2CCOCC23COC3)cc2ncc(N3CCOCC3)nc12 (single isomer, unassigned) [Compound 195] | 0.002 µM | 0.479 µM | 1.95 µM | > 30.2 µM | 12.9 µM | ~0.102 µM | 0.047 µM |  | 
19 | CC(Nc1cc(F)cc(F)c1)c1cc(CN2CCO[C@H](CO)C2)cc2ncc(N3CCOCC3)nc12 (single isomer, unassigned) [Compound 196] | 0.005 µM | 0.813 µM | 2.82 µM | > 30.2 µM | 15.8 µM |  |  | 0.182 µM | 0.091 µM
20 | CC(Nc1cc(F)cc(F)c1)c1cc(C(=O)NC[C@@H](C)O)cc2ncc(N3CCOCC3)nc12 (single isomer, unassigned) [Compound 202] | 3.95 µM | > 30.2 µM | > 30.2 µM | 6.03 µM | 3.32 µM | > 0.513 µM | > 0.513 µM |  | 
